What follows are compounds tested against T1, wild type FGFR-4 (Homo sapiens, UniProt P22455) (assay: FGFR-4 wild type assay at Km (Caliper electrophoretic mobility shift)). Conditions: wild type FGFR-4, 400 uM ATP, 25 C, 90 minutes; read-out: INH-FGFR4.
T1 construct: purchased Carna Biosciences, Inc
T1 sequence (P22455 22-802): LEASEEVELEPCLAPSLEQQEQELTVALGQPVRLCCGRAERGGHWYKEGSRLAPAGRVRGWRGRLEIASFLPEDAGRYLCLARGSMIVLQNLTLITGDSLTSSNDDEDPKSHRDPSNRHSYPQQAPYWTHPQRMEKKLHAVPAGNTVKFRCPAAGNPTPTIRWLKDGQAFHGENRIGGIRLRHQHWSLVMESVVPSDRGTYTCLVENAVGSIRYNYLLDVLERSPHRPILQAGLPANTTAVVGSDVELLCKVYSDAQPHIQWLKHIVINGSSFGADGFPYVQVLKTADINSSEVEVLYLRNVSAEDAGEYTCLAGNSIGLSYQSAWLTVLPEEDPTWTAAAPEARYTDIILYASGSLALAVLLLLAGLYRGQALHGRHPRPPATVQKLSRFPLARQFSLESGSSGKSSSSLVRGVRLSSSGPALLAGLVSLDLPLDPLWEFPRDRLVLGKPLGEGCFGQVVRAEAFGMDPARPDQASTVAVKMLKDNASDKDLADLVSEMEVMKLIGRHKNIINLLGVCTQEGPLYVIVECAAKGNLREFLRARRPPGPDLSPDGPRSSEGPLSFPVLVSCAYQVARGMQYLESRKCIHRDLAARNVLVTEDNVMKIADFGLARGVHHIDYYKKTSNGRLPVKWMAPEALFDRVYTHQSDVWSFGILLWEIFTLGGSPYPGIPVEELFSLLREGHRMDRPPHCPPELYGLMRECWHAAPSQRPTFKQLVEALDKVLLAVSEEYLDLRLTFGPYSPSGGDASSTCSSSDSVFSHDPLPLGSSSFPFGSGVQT
Assay type: biochemical
Protocol: Biochemical Activity Assessment In order to assess the activity of chemical compounds against the relevant kinase of interest, the Caliper LifeSciences electrophoretic mobility shift technology platform is utilized. Fluorescently labeled substrate peptide is incubated in the presence dosed levels of compounds, a set concentration of kinase and of ATP, so that a reflective proportion of the peptide is phosphorylated. At the end of the reaction, the mix of phosphorylated (product) and non-phosphorylated (substrate) peptides are passed through the microfluidic system of the Caliper LabChip® EZ Reader II, under an applied potential difference. The presence of the phosphate group on the product peptide provides a difference in mass and charge between the product peptide and the substrate peptide, resulting in a separation of the substrate and product pools in the sample. As the pools pass the LEDS within the instrument, these pools are detected and resolved as separate peaks. The ratio between these peaks therefore reflects the activity of the chemical matter at that concentration in that well, under those conditions.
FGFR-4 wild type assay at Km: In each well of a 384-well plate, 0.5 ng/ul of wild type FGFR-4 (Carna Biosciences, Inc.) was incubated in a total of 12.5 ul of buffer (100 mM HEPES pH 7.5, 0.015% Brij 35, 10 mM MgCl2, 1 mM DTT) with 1 uM CSKtide (5-FAM-KKKKEEIYFFFG-NH2) and 400 uM ATP at 25 C for 90 minutes in the presence or absence of a dosed concentration series of compound (1% DMSO final concentration). The reaction was stopped by the addition of 70 ul of Stop buffer (100 mM HEPES pH 7.5, 0.015% Brij 35, 35 mM EDTA and 0.2% of Coating Reagent 3 (Caliper Lifesciences)). The plate was then read on a Caliper LabChip® EZ Reader II (protocol settings: −1.9 psi, upstream voltage −700, downstream voltage −3000, post sample sip 35 s).
`C=CC(=O)N[C@H]1CC[C@H](C(N)=O)C[C@H]1Nc1ncc2cc(-c3c(Cl)c(OC)cc(OC)c3Cl)ccc2n1` (racemic) [Compound 72] gave an IC50 of 100 to 1000 nM. `C=CC(=O)N[C@H]1C[C@H](C(=O)N(C)C)CC[C@H]1Nc1ncc2cc(-c3c(Cl)c(OC)cc(OC)c3Cl)ccc2n1` (racemic) [Compound 87] gave an IC50 of 100 to 1000 nM. `C#CC(=O)N[C@H]1CCC[C@H]1Nc1ncc2cc(-c3cccnc3)ccc2n1` [Compound 1] was tested, and the IC50 was greater than 1000 nM. `C#CC(=O)N[C@H]1CCC[C@H]1Nc1ncc2cc(-c3c(F)ccc(OC)c3F)ccc2n1` [Compound 2, N-((1S,2R)-2-((6-(2,6-difluoro-3-methoxyphenyl)quinazolin-2-yl)amino)cyclopentyl)propiolamide] gave an IC50 of 10 to 100 nM. `C#CC(=O)N[C@H]1CCC[C@H]1Nc1ncc2cc(-c3cc(C(N)=O)ccc3Cl)ccc2n1` [Compound 3] showed an IC50 of 100 to 1000 nM. In the case of `C#CC(=O)N[C@H]1CCC[C@H]1Nc1ncc2cc(-c3c(Cl)ccc(OC)c3F)ccc2n1` [Compound 4], the IC50 is reported as 10 to 100 nM. With `C#CC(=O)N[C@H]1CCC[C@H]1Nc1ncc2cc(-c3c(Cl)ccc(OC)c3Cl)ccc2n1` [Compound 5] the IC50 was 10 to 100 nM. With `C#CC(=O)N[C@H]1CCC[C@H]1Nc1ncc2cc(-c3c(F)ccc(OCC)c3Cl)ccc2n1` [Compound 6, N-((1S,2R)-2-((6-(2-chloro-3-ethoxy-6-fluorophenyl)quinazolin-2-yl)amino)cyclopentyl)propiolamide] the IC50 was 100 to 1000 nM. With `C#CC(=O)N[C@H]1CCC[C@H]1Nc1ncc2cc(-c3cc(C(=O)NC4CC4)ccc3C)ccc2n1` [Compound 7] the IC50 was 10 to 100 nM. `C=CC(=O)N[C@H]1COCC1Nc1ncc2cc(-c3cc(OC)cc(OC)c3Cl)ccc2n1` (stereo partly drawn) [Compound 8] was tested, and the IC50 was 10 to 100 nM. `C=CC(=O)N[C@H]1CCC[C@H]1Nc1ncc2cc(-c3cc(C(=O)NC4CC4)ccc3C)ccc2n1` [Compound 9] showed an IC50 of 100 to 1000 nM. `C#CC(=O)N[C@H]1CCC[C@H]1Nc1ncc2cc(-c3cc(OC)cc(C(=O)NCC)c3)ccc2n1` [Compound 10] was tested, and the IC50 was greater than 1000 nM. With `C#CC(=O)N[C@H]1CCC[C@H]1Nc1ncc2cc(-c3cc(C(=O)NCC)ccc3Cl)ccc2n1` [Compound 11] the IC50 was 10 to 100 nM. `C#CC(=O)N[C@H]1CCC[C@H]1Nc1ncc2cc(-c3cc(C(=O)NOC)ccc3Cl)ccc2n1` [Compound 12] gave an IC50 of less than 10 nM. `C#CC(=O)NC1CCC1Nc1ncc2cc(-c3c(Cl)c(OC)cc(OC)c3Cl)ccc2n1` (stereo not drawn) [Compound 14] was tested, and the IC50 was 10 to 100 nM. `C=CC(=O)NC1CCC1Nc1ncc2cc(-c3c(Cl)c(OC)cc(OC)c3Cl)ccc2n1` (stereo not drawn) [Compound 15] gave an IC50 of 100 to 1000 nM. `C#CC(=O)N[C@H]1CCC[C@H]1Nc1ncc2cc(-c3cc(C(=O)NC4CC4)ccc3Cl)ccc2n1` [Compound 16] showed an IC50 of 10 to 100 nM. With `CCC(=O)N[C@H]1CCC[C@H]1Nc1ncc2cc(-c3cc(C(=O)NC4CC4)ccc3Cl)ccc2n1` [Compound 17] the IC50 was greater than 1000 nM. In the case of `C#CC(=O)N[C@H]1CCC[C@H]1Nc1ncc2cc(-c3cc(S(=O)(=O)N(C)C)ccc3C)ccc2n1` [Compound 18], the IC50 is reported as greater than 1000 nM. `C#CC(=O)N[C@H]1CCC[C@H]1Nc1ncc2cc(-c3cc(C(=O)NOC)c(F)cc3Cl)ccc2n1` [Compound 19] gave an IC50 of 10 to 100 nM. `C#CC(=O)N[C@H]1CCC[C@H]1Nc1ncc2cc(-c3c(Cl)c(OC)cc(OC)c3Cl)ccc2n1` [Compound 20] showed an IC50 of less than 10 nM. Work on `C=CC(=O)N[C@@H]1CCC[C@H]1Nc1ncc2cc(-c3c(Cl)c(OC)cc(OC)c3Cl)ccc2n1` [Compound 21] yielded an IC50 greater than 1000 nM. For `C=CC(=O)N[C@H]1CCC[C@@H]1Nc1ncc2cc(-c3c(Cl)c(OC)cc(OC)c3Cl)ccc2n1` [Compound 22], the IC50 was 100 to 1000 nM. In the case of `C=CC(=O)N[C@@H]1CCC[C@@H]1Nc1ncc2cc(-c3c(Cl)c(OC)cc(OC)c3Cl)ccc2n1` [Compound 23], the IC50 is reported as 100 to 1000 nM. `C=CC(=O)NC1CNCC1Nc1ncc2cc(-c3c(Cl)c(OC)cc(OC)c3Cl)ccc2n1` (stereo not drawn) [Compound 25] gave an IC50 of 10 to 100 nM. Compound `C#CC(=O)N[C@H]1CCC[C@H]1Nc1ncc2cc(-c3cc(C(=O)NC4CC4)c(F)cc3Cl)ccc2n1` [Compound 30] has an IC50 of 10 to 100 nM. `C#CC(=O)N[C@H]1CCCC[C@H]1Nc1ncc2cc(-c3c(Cl)c(OC)cc(OC)c3Cl)ccc2n1` [Compound 31] was tested, and the IC50 was less than 10 nM. For `C=CC(=O)N[C@H]1CC(=O)C[C@H]1Nc1ncc2cc(-c3c(Cl)c(OC)cc(OC)c3Cl)ccc2n1` [Compound 33], the IC50 was 10 to 100 nM. For `C=CC(=O)N[C@@H]1CCCC[C@@H]1Nc1ncc2cc(-c3c(Cl)c(OC)cc(OC)c3Cl)ccc2n1` [Compound 35], the IC50 was greater than 1000 nM. For `C=CC(=O)N[C@H]1CCCC[C@@H]1Nc1ncc2cc(-c3c(Cl)c(OC)cc(OC)c3Cl)ccc2n1` [Compound 36, N-((1S,2S)-2-((6-(2,6-dichloro-3,5-dimethoxyphenyl)quinazolin-2-yl)amino)cyclohexyl)acrylamide], the IC50 was greater than 1000 nM. For `C=CC(=O)N[C@@H]1CCCC[C@H]1Nc1ncc2cc(-c3c(Cl)c(OC)cc(OC)c3Cl)ccc2n1` [Compound 37], the IC50 was greater than 1000 nM. Compound `C=CC(=O)N[C@H]1CCNC[C@H]1Nc1ncc2cc(-c3c(Cl)c(OC)cc(OC)c3Cl)ccc2n1` [Compound 38] has an IC50 of 100 to 1000 nM. `C=CC(=O)N[C@@H]1CCNC[C@@H]1Nc1ncc2cc(-c3c(Cl)c(OC)cc(OC)c3Cl)ccc2n1` [Compound 39] showed an IC50 greater than 1000 nM. For `C=CC(=O)N[C@H]1C[C@@H](O)C[C@H]1Nc1ncc2cc(-c3c(Cl)c(OC)cc(OC)c3Cl)ccc2n1` [Compound 42], the IC50 was 10 to 100 nM. `C=CC(=O)N[C@@H]1CCOC[C@@H]1Nc1ncc2cc(-c3c(Cl)c(OC)cc(OC)c3Cl)ccc2n1` [Compound 43] gave an IC50 of 100 to 1000 nM. In the case of `CC#CC(=O)N[C@H]1CCCC[C@H]1Nc1ncc2cc(-c3c(Cl)c(OC)cc(OC)c3Cl)ccc2n1` [Compound 47], the IC50 is reported as greater than 1000 nM. In the case of `C#CC(=O)N[C@H]1CCC[C@H]1Nc1ncc2cc(-c3c(Cl)c(OC)cc(OC)c3Cl)cc(OC)c2n1` [Compound 48], the IC50 is reported as less than 10 nM. `C#CC(=O)N[C@H]1CCC[C@H]1Nc1cc2c(cn1)cc(-c1c(Cl)c(OC)cc(OC)c1Cl)c(=O)n2C` [Compound 49] was tested, and the IC50 was less than 10 nM. Compound `C=CC(=O)N[C@H]1CCOC[C@H]1Nc1ncc2c(F)c(-c3c(Cl)c(OC)cc(OC)c3Cl)ccc2n1` [Compound 50] has an IC50 of 10 to 100 nM. `C=CC(=O)N[C@H]1CCC[C@H]1Nc1ncc2cc(-c3c(Cl)c(OC)cc(OC)c3Cl)cc(Cl)c2n1` [Compound 53] was tested, and the IC50 was 10 to 100 nM. In the case of `C=CC(=O)N[C@@H]1CN(C(C)=O)C[C@@H]1Nc1ncc2cc(-c3c(Cl)c(OC)cc(OC)c3Cl)ccc2n1` [Compound 57], the IC50 is reported as 100 to 1000 nM. `C=CC(=O)N[C@@H]1CC(C)(C)OC[C@@H]1Nc1ncc2cc(-c3c(Cl)c(OC)cc(OC)c3Cl)ccc2n1` [Compound 59] gave an IC50 of 100 to 1000 nM. `C=CC(=O)N[C@H]1CC(C)(C)OC[C@H]1Nc1ncc2cc(-c3c(Cl)c(OC)cc(OC)c3Cl)ccc2n1` [Compound 60] was tested, and the IC50 was greater than 1000 nM. In the case of `C#CC(=O)N[C@H]1Cc2ccccc2[C@H]1Nc1ncc2cc(-c3c(Cl)c(OC)cc(OC)c3Cl)ccc2n1` [Compound 65], the IC50 is reported as 100 to 1000 nM. For `C=CS(=O)(=O)N[C@H]1CCCC[C@H]1Nc1ncc2cc(-c3c(Cl)c(OC)cc(OC)c3Cl)ccc2n1` [Compound 66], the IC50 was 10 to 100 nM. For `C=CC(=O)N[C@H]1CCOC[C@H]1Nc1ncc2cc(-c3c(Cl)c(OC)cc(OC)c3Cl)cc(Cl)c2n1` [Compound 67], the IC50 was less than 10 nM. `C#CC(=O)N[C@H]1CCCC[C@H]1Nc1cc2c(cn1)cc(-c1c(Cl)c(OC)cc(OC)c1Cl)c(=O)n2CC` [Compound 68] was tested, and the IC50 was less than 10 nM. Work on `C=CC(=O)N[C@@H]1CCN(C(C)=O)C[C@@H]1Nc1ncc2cc(-c3c(Cl)c(OC)cc(OC)c3Cl)ccc2n1` [Compound 69] yielded an IC50 of 100 to 1000 nM.
